Measurements: US12319672B2, “Alpha-D-galactopyranoside derivatives” (Idorsia Pharmaceuticals Ltd, priority 2019, dated 2025)

Tests used:
human Gal-3 (hGal-3) = human Gal-3 (hGal-3) (Homo sapiens (Human), UniProt P17931); experiment: Competitive binding assay: binding of biotinylated hGal-3 to microplate-adsorbed asialofetuin (ASF); settings: Activity on hGal-3; mean values of several measurements
Procedure, shortened: (§1)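 Biotin-hGal-3/hGal-1 300-1000 ng/mL + cpd (DMSO dilutions) on ASF-coated plate, 3 h 4° C; wash; SA-HRP 80 ng/mL 1 h 4° C; wash; ABTS. IC50 = mean of several runs. hGal-1 preferably Cys→Ser (all six) mutant.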

human Gal-1 (hGal-1) = experiment: Competitive binding assay: binding of biotinylated hGal-1 to microplate-adsorbed asialofetuin (ASF); settings: Activities on hGal-1; mean values of several measurements
human Gal-1 (hGal-1), sequence (P09382 2-135 limits assumed): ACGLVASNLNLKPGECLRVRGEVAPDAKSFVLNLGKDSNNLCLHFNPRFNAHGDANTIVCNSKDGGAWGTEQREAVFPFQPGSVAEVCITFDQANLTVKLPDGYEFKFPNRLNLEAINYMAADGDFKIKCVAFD
Procedure, shortened: as §1

human Gal-3 (hGal-3), sequence (P17931 whole entry): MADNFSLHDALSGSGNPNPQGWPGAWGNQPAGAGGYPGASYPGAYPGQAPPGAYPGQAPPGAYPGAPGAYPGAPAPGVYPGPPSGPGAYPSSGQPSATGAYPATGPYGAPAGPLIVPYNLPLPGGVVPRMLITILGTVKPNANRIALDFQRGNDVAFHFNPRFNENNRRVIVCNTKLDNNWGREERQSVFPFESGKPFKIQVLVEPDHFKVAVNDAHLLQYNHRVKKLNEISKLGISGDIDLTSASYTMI

Compound | IC50 (human Gal-3 (hGal-3)) | IC50 (human Gal-1 (hGal-1))
CO[C@@H]1[C@@H](n2cc(-c3cc(F)c(F)c(F)c3)nn2)[C@@H](O)[C@@H](CO)O[C@@H]1Cn1cc(C2CCCC2)nn1 [Example 4.48, (2R,3R,4S,5R,6R)-6-((4-cyclopentyl-1H-1,2,3-triazol-1-yl)methyl)-2-(hydroxymethyl)-5-methoxy-4-(4-(3,4,5-trifluorophenyl)-1H-1,2,3-triazol-1-yl)tetrahydro-2H-pyran-3-ol] | 250 nM | 2860 nM
CO[C@@H]1[C@@H](n2cc(-c3cc(F)c(F)c(F)c3)nn2)[C@@H](O)[C@@H](CO)O[C@@H]1Cn1cc(C2(C)CCCC2)nn1 [Example 4.49, (2R,3R,4S,5R,6R)-2-(hydroxymethyl)-5-methoxy-6-((4-(1-methylcyclopentyl)-1H-1,2,3-triazol-1-yl)methyl)-4-(4-(3,4,5-trifluorophenyl)-1H-1,2,3-triazol-1-yl)tetrahydro-2H-pyran-3-ol] | 240 nM | 3930 nM
CO[C@@H]1[C@@H](n2cc(-c3cc(F)c(F)c(F)c3)nn2)[C@@H](O)[C@@H](CO)O[C@@H]1Cn1cc(C2(C#N)CCCC2)nn1 [Example 4.50, 1-(1-(((2R,3R,4S,5R,6R)-5-hydroxy-6-(hydroxymethyl)-3-methoxy-4-(4-(3,4,5-trifluorophenyl)-1H-1,2,3-triazol-1-yl)tetrahydro-2H-pyran-2-yl)methyl)-1H-1,2,3-triazol-4-yl)cyclopentane-1-carbonitrile] | 330 nM | 4290 nM
CO[C@@H]1[C@@H](n2cc(-c3cc(F)c(F)c(F)c3)nn2)[C@@H](O)[C@@H](CO)O[C@@H]1Cn1cc(C2(C)CCOCC2)nn1 [Example 4.51, (2R,3R,4S,5R,6R)-2-(hydroxymethyl)-5-methoxy-6-((4-(4-methyltetrahydro-2H-pyran-4-yl)-1H-1,2,3-triazol-1-yl)methyl)-4-(4-(3,4,5-trifluorophenyl)-1H-1,2,3-triazol-1-yl)tetrahydro-2H-pyran-3-ol] | 160 nM | 1600 nM
CO[C@@H]1[C@@H](n2cc(-c3ccc(C)c(F)c3F)nn2)[C@@H](O)[C@@H](CO)O[C@@H]1Cc1cn(C(C)(C)C)nn1 [Example 4.52, (2R,3R,4S,5R,6R)-6-((1-(tert-butyl)-1H-1,2,3-triazol-4-yl)methyl)-4-(4-(2,3-difluoro-4-methylphenyl)-1H-1,2,3-triazol-1-yl)-2-(hydroxymethyl)-5-methoxytetrahydro-2H-pyran-3-ol] | 53 nM | 730 nM
CO[C@@H]1[C@@H](n2cc(-c3ccc(Cl)c(F)c3F)nn2)[C@@H](O)[C@@H](CO)O[C@@H]1Cc1cn(C(C)(C)C)nn1 [Example 4.53, (2R,3R,4S,5R,6R)-6-((1-(tert-butyl)-1H-1,2,3-triazol-4-yl)methyl)-4-(4-(4-chloro-2,3-difluorophenyl)-1H-1,2,3-triazol-1-yl)-2-(hydroxymethyl)-5-methoxytetrahydro-2H-pyran-3-ol] | 34 nM | 750 nM
CO[C@@H]1[C@@H](n2cc(-c3ccc(C)c(F)c3F)nn2)[C@@H](O)[C@@H](CO)O[C@@H]1Cn1cc(C(C)(C)C)nn1 [Example 4.54, (2R,3R,4S,5R,6R)-6-((4-(tert-butyl)-1H-1,2,3-triazol-1-yl)methyl)-4-(4-(2,3-difluoro-4-methylphenyl)-1H-1,2,3-triazol-1-yl)-2-(hydroxymethyl)-5-methoxytetrahydro-2H-pyran-3-ol] | 46 nM | 1500 nM
CO[C@@H]1[C@@H](n2cc(-c3ccc(Cl)c(F)c3F)nn2)[C@@H](O)[C@@H](CO)O[C@@H]1Cn1cc(C(C)(C)C)nn1 [Example 4.55, (2R,3R,4S,5R,6R)-6-((4-(tert-butyl)-1H-1,2,3-triazol-1-yl)methyl)-4-(4-(4-chloro-2,3-difluorophenyl)-1H-1,2,3-triazol-1-yl)-2-(hydroxymethyl)-5-methoxytetrahydro-2H-pyran-3-ol] | 31 nM | 950 nM
CO[C@@H]1[C@@H](n2cc(-c3cc(F)c(F)c(F)c3)nn2)[C@@H](O)[C@@H](CO)O[C@@H]1C[C@@H]1CN(C2CCN(C(C)=O)CC2)C(=O)O1 [Example 5.05, (R)-3-(1-acetylpiperidin-4-yl)-5-(((2R,3R,4S,5R,6R)-5-hydroxy-6-(hydroxymethyl)-3-methoxy-4-(4-(3,4,5-trifluorophenyl)-1H-1,2,3-triazol-1-yl)tetrahydro-2H-pyran-2-yl)methyl)oxazolidin-2-one] | 330 nM | 300 nM
CO[C@@H]1[C@@H](n2cc(-c3cc(F)c(F)c(F)c3)nn2)[C@@H](O)[C@@H](CO)O[C@@H]1C[C@H]1CN(C2CCN(C(C)=O)CC2)C(=O)O1 [Example 5.06, (S)-3-(1-acetylpiperidin-4-yl)-5-(((2R,3R,4S,5R,6R)-5-hydroxy-6-(hydroxymethyl)-3-methoxy-4-(4-(3,4,5-trifluorophenyl)-1H-1,2,3-triazol-1-yl)tetrahydro-2H-pyran-2-yl)methyl)oxazolidin-2-one] | 96 nM | 270 nM
CO[C@@H]1[C@@H](n2cc(-c3cc(F)c(F)c(F)c3)nn2)[C@@H](O)[C@@H](CO)O[C@@H]1C[C@H]1CN(C2CCN(S(C)(=O)=O)CC2)C(=O)O1 [Example 5.07, (S)-5-(((2R,3R,4S,5R,6R)-5-hydroxy-6-(hydroxymethyl)-3-methoxy-4-(4-(3,4,5-trifluorophenyl)-1H-1,2,3-triazol-1-yl)tetrahydro-2H-pyran-2-yl)methyl)-3-(1-(methylsulfonyl)piperidin-4-yl)oxazolidin-2-one] | 280 nM | 7570 nM
CO[C@@H]1[C@@H](n2cc(-c3cc(F)c(F)c(F)c3)nn2)[C@@H](O)[C@@H](CO)O[C@@H]1C[C@@H]1CN(C2CCN(S(C)(=O)=O)CC2)C(=O)O1 [Example 5.08, (R)-5-(((2R,3R,4S,5R,6R)-5-hydroxy-6-(hydroxymethyl)-3-methoxy-4-(4-(3,4,5-trifluorophenyl)-1H-1,2,3-triazol-1-yl)tetrahydro-2H-pyran-2-yl)methyl)-3-(1-(methylsulfonyl)piperidin-4-yl)oxazolidin-2-one] | 18 nM | 160 nM
CO[C@@H]1[C@@H](n2cc(-c3cc(F)c(F)c(F)c3)nn2)[C@@H](O)[C@@H](CO)O[C@@H]1C[C@H]1CN(C2CCN(C(=O)C(C)C)CC2)C(=O)O1 [Example 5.12, (S)-5-(((2R,3R,4S,5R,6R)-5-hydroxy-6-(hydroxymethyl)-3-methoxy-4-(4-(3,4,5-trifluorophenyl)-1H-1,2,3-triazol-1-yl)tetrahydro-2H-pyran-2-yl)methyl)-3-(1-isobutyrylpiperidin-4-yl)oxazolidin-2-one] | 130 nM | 1000 nM
CO[C@@H]1[C@@H](n2cc(-c3cc(F)c(F)c(F)c3)nn2)[C@@H](O)[C@@H](CO)O[C@@H]1C[C@@H]1CN(C2CCN(C(=O)C(C)C)CC2)C(=O)O1 [Example 5.13, (R)-5-(((2R,3R,4S,5R,6R)-5-hydroxy-6-(hydroxymethyl)-3-methoxy-4-(4-(3,4,5-trifluorophenyl)-1H-1,2,3-triazol-1-yl)tetrahydro-2H-pyran-2-yl)methyl)-3-(1-isobutyrylpiperidin-4-yl)oxazolidin-2-one] | 590 nM | 4730 nM
CO[C@@H]1[C@@H](n2cc(-c3cc(F)c(F)c(F)c3)nn2)[C@@H](O)[C@@H](CO)O[C@@H]1C[C@H]1CN(C2CCN(C(=O)OC(C)(C)C)CC2)C(=O)O1 [Example 5.14, tert-butyl 4-((S)-5-(((2R,3R,4S,5R,6R)-5-hydroxy-6-(hydroxymethyl)-3-methoxy-4-(4-(3,4,5-trifluorophenyl)-1H-1,2,3-triazol-1-yl)tetrahydro-2H-pyran-2-yl)methyl)-2-oxooxazolidin-3-yl)piperidine-1-carboxylate] | 340 nM | 6410 nM
CO[C@@H]1[C@@H](n2cc(-c3cc(F)c(F)c(F)c3)nn2)[C@@H](O)[C@@H](CO)O[C@@H]1C[C@@H]1CN(C2CCN(C(=O)OC(C)(C)C)CC2)C(=O)O1 [Example 5.15, tert-butyl 4-((R)-5-(((2R,3R,4S,5R,6R)-5-hydroxy-6-(hydroxymethyl)-3-methoxy-4-(4-(3,4,5-trifluorophenyl)-1H-1,2,3-triazol-1-yl)tetrahydro-2H-pyran-2-yl)methyl)-2-oxooxazolidin-3-yl)piperidine-1-carboxylate] | 50 nM | 210 nM
CO[C@@H]1[C@@H](n2cc(-c3cc(F)c(F)c(F)c3)nn2)[C@@H](O)[C@@H](CO)O[C@@H]1Cc1cc(C2CCC(F)(F)CC2)sn1 [Example 6.01, (2R,3R,4S,5R,6R)-6-((5-(4,4-difluorocyclohexyl)isothiazol-3-yl)methyl)-2-(hydroxymethyl)-5-methoxy-4-(4-(3,4,5-trifluorophenyl)-1H-1,2,3-triazol-1-yl)tetrahydro-2H-pyran-3-ol] | 560 nM | 6380 nM
CO[C@@H]1[C@@H](n2cc(-c3cc(F)c(F)c(F)c3)nn2)[C@@H](O)[C@@H](CO)O[C@@H]1Cc1cc(C2CCN(C(=O)OC(C)(C)C)CC2)sn1 [Example 6.02, tert-butyl 4-(3-(((2R,3R,4S,5R,6R)-5-hydroxy-6-(hydroxymethyl)-3-methoxy-4-(4-(3,4,5-trifluorophenyl)-1H-1,2,3-triazol-1-yl)tetrahydro-2H-pyran-2-yl)methyl)isothiazol-5-yl)piperidine-1-carboxylate] | 110 nM | 1970 nM
CO[C@@H]1[C@@H](n2cc(-c3cc(F)c(F)c(F)c3)nn2)[C@@H](O)[C@@H](CO)O[C@@H]1Cc1cc(C2CCNCC2)sn1 [Example 6.03, (2R,3R,4S,5R,6R)-2-(hydroxymethyl)-5-methoxy-6-((5-(piperidin-4-yl)isothiazol-3-yl)methyl)-4-(4-(3,4,5-trifluorophenyl)-1H-1,2,3-triazol-1-yl)tetrahydro-2H-pyran-3-ol] | 220 nM | 4160 nM
